Experimental data taken from the RepoRT retention time repository.

Assay: Waters ACQUITY UPLC BEH C18, 100 × 2.1 mm, 1.7 µm, 40 °C, 0.3 to 0.4 mL/min, estimated dead time 0.63 min; A: water + 0.1% formic acid; B: methanol + 0.1% formic acid; gradient (min/%B) 0/0.5 0.1/0.5 10/80 10.1/99.5 12/99.5
Conditions: stereoisomer not certain

SMILES	LC retention time [min]
CC(=O)OCC1OC(OC2C(O)COC(OC3C(O)C(C)(C)CC4C5=CCC6C7(C)CCC(OC8OC(C(=O)O)C(O)C(O)C8OC8OC(CO)C(O)C(O)C8OC8OC(CO)C(O)C(O)C8O)C(C)(CO)C7CCC6(C)C5(C)CCC43C)C2O)C(OC(C)=O)C(OC(C)=O)C1OC(C)=O (stereo not drawn)	6.26
CC(CN)CCC1(O)OC2CC3C4CCC5CC(OC6OC(CO)C(OC7OC(CO)C(O)C(OC8OCC(O)C(O)C8O)C7OC7OC(CO)C(O)C(O)C7O)C(O)C6O)CCC5(C)C4CCC3(C)C2C1C (stereo not drawn)	4.31
OCC1OC(Oc2cc3c(O)cc(O)cc3[o+]c2-c2cc(O)c(O)c(O)c2)C(O)C(O)C1O (stereo not drawn)	2.61
CC(C)=CCCC(C)(O)C1CCC2(C)C1C(O)CC1C3(C)CCC(OC4OC(CO)C(O)C(O)C4OC4OC(CO)C(O)C(O)C4O)C(C)(C)C3CCC12C (stereo not drawn)	8.2
O=C1CCC(C(=O)O)N1 (stereo not drawn)	1.73
COc1cc2ccc(=O)oc2cc1OC	5
O=C1CC(c2ccc(O)cc2)Oc2cc(O)cc(O)c21 (stereo not drawn)	5.95
CC(C)(CO)C(O)C(=O)NCCC(=O)O (stereo not drawn)	2.48
COc1ccc(CC2COC(=O)C2Cc2ccc(OC3OC(CO)C(O)C(O)C3O)c(OC)c2)cc1OC (stereo not drawn)	5.18
CCC1(O)C(=O)OCc2c1cc1n(c2=O)Cc2cc3ccccc3nc2-1 (stereo not drawn)	5.4
CC=CS(=O)CC(NC(=O)CCC(N)C(=O)O)C(=O)O (stereo not drawn)	1.79
CC(C)=CCCC(C)(O)C1CCC2(C)C1C(O)CC1C3(C)CCC(O)C(C)(C)C3C(OC3OC(CO)C(O)C(O)C3OC3OC(C)C(O)C(O)C3O)CC12C (stereo not drawn)	6.25
CCN1CC2(COC(=O)c3ccccc3N)CCC(OC)C34C5CC6C(OC)CC(O)(C5C6OC)C(O)(C(OC)C23)C14 (stereo not drawn)	5.5
CCC(C)C(N)C(=O)NC(CC(=O)O)C(=O)O (stereo not drawn)	1.87
C=C1CC(=CC)C(=O)OC2CCN3CC=C(COC(=O)C1(C)O)C23 (stereo not drawn)	3.45
COc1cc2cc3c4cc(OC)c(OC)cc4cc[n+]3c(C)c2cc1OC	5.27
CCSSCC(NCC1(O)OCC(O)C(O)C1O)C(=O)NCCC(=O)O (stereo not drawn)	3.29
O=S(=O)(O)ON=C(Cc1ccccc1)SC1OC(CO)C(O)C(O)C1O (stereo not drawn)	2.83
CC(O)(CC(=O)O)CC(=O)OCC1OC(Oc2c(-c3ccc(O)cc3)oc3cc(OC4OC(CO)C(O)C(O)C4O)cc(O)c3c2=O)C(O)C(O)C1O (stereo not drawn)	3.34
COc1cc(C2Oc3c(O)cc(C4Oc5cc(O)cc(O)c5C(=O)C4O)cc3C2CO)ccc1O (stereo not drawn)	4.96
O=c1c(OC2OC(CO)C(O)C(O)C2O)c(-c2ccc(O)cc2)oc2cc(O)cc(O)c12 (stereo not drawn)	4.37

SMILES	LC retention time [min]
O=c1cc(-c2ccc(O)cc2)oc2cc(O)ccc12	7.38
O=C(O)c1cc(O)c(O)c(O)c1	2.04
CC=C1CN2C3CC1C(CO)C2Cc1c3[nH]c2cc(OC)ccc12 (stereo not drawn)	3.68
CS(=O)CCCCCCC#N (stereo not drawn)	3.43
COc1c(O)cc2c(c1O)C1OC(CO)C(O)C(O)C1OC2=O (stereo not drawn)	2.86
CC1CCC2(OC1)OC1CC3C4CC=C5CC(O)CC(OC6OCC(O)C(O)C6OC6OC(C)C(O)C(O)C6O)C5(C)C4CCC3(C)C1C2C (stereo not drawn)	8.57
CC(CSCC(NC(=O)CCC(N)C(=O)O)C(=O)O)C(=O)O (stereo not drawn)	2.39
CC1OC(OC2C(c3c(O)cc(O)c4c(=O)cc(-c5ccc(O)cc5)oc34)OC(CO)C(O)C2O)C(O)C(O)C1O (stereo not drawn)	4.61
COc1ccc(-c2oc3cc(O)cc(O)c3c(=O)c2O)cc1	5.99
CC(O)(CC(=O)O)CC(=O)O	1.98
O=C(CCc1ccc(O)cc1)c1c(O)cc(O)cc1OC1OC(CO)C(O)C(O)C1O (stereo not drawn)	4.73
COC(=O)C1(O)CC23CCCN4CCC5(c6ccc7c(c6NC15CC2)OCO7)C43 (stereo not drawn)	3.61
COc1cc(C(C)=O)cc(OC)c1O	4.31
COc1ccc2c(c1)OC(OC1OC(C(=O)O)C(O)C(O)C1O)C(O)N2 (stereo not drawn)	2.19
CC(CS)C(=O)N1CCCC1C(=O)O (stereo not drawn)	4.05
COc1cc(C=CC(=O)OC(CC(=O)O)C(=O)O)cc(OC)c1O (stereo not drawn)	4.23
COC(=O)CC(OC(=O)C=Cc1cc(OC)c(O)c(OC)c1)C(=O)OC (stereo not drawn)	3.28
CC(C)CC(NC(=O)CCC(N)C(=O)O)C(=O)O (stereo not drawn)	2.54
O=C(O)C1OC(Oc2cc3oc(-c4ccccc4)cc(=O)c3c(O)c2O)C(O)C(O)C1O (stereo not drawn)	4.49
O=C(C=Cc1ccc(O)cc1)NCCCCN(CCCNC(=O)C=Cc1ccc(O)cc1)C(=O)C=Cc1ccc(O)cc1	5.62
CC(CCC1(O)OC2CC3C4CC=C5CC(O)CC(OC6OCC(O)C(OC7OCC(O)C(O)C7O)C6OC6OC(C)C(O)C(O)C6O)C5(C)C4CCC3(C)C2C1C)COC1OC(CO)C(O)C(O)C1O (stereo not drawn)	4.15

SMILES	LC retention time [min]
CN1CCc2cc3c(c4c2C1Cc1ccccc1-4)OCO3 (stereo not drawn)	4.89
O=C1CC(c2ccccc2O)Oc2ccccc21 (stereo not drawn)	7.45
COc1cc2c(cc1OC)-c1c(C)c3ccc(OC)c(OC)c3c[n+]1CC2	5.19
CN1c2cc(O)c(N=NC(N)=O)cc2CC1S(=O)(=O)O (stereo not drawn)	2.69
COc1c(-c2ccccc2)oc2c(OC)c(O)cc(O)c2c1=O	5.71
CCCCCC=CCC=CCC=CCC=CCCCC(=O)O	7.39
CC1OC(OC2C(Oc3cc(O)c4c(=O)cc(-c5ccc(O)cc5)oc4c3)OC(CO)C(O)C2O)C(O)C(O)C1O (stereo not drawn)	4.34
CC(C)=CCC=C(C)C1CCC2(C)C1C(O)CC1C3(C)CCC(OC4OC(CO)C(O)C(O)C4O)C(C)(C)C3CCC12C (stereo not drawn)	7.63
CC(=O)OC1C(C)CNC2C(C)C3C(CC4C5CCC6CC(OC7OC(CO)C(OC8OC(CO)C(O)C(OC9OCC(O)C(O)C9O)C8OC8OC(CO)C(O)C(O)C8O)C(O)C7O)CCC6(C)C5CCC43C)OC21O (stereo not drawn)	4.29
CC1(C)CCC2(C(=O)O)CCC3(C)C(=CCC4C5(C)CC(O)C(O)C(C)(C(=O)OC6OC(COC(=O)CC(=O)O)C(O)C(O)C6O)C5CCC43C)C2C1 (stereo not drawn)	7.45
COc1cc2c(c(OC)c1OC)-c1ccc(OC)c(=O)cc1C(N(C)Cc1ccccc1O)CC2 (stereo not drawn)	5.03
COc1cc2c(cc1OC)-c1cc3ccc(OC)c(OC)c3c[n+]1CC2	4.96
C=CC1CN2CCC1CC2C(O)c1ccnc2ccccc12 (stereo not drawn)	3.09
O=C(O)C=Cc1ccc(O)cc1	2.71
COc1ccc2c3c([nH]c2c1)C1CC2C(CC(O)C(OC)C2C(=O)O)CN1CC3 (stereo not drawn)	3.89
COc1cc(C=CC(=O)NCCc2ccc(O)cc2)ccc1O	5.13
CC(C)=CCc1c(O)cc(O)c2c1OCC(c1ccc(O)cc1O)C2=O (stereo not drawn)	7.04
O=c1[nH]c(=O)c2ncn(C3OC(CO)C(O)C3O)c2[nH]1 (stereo not drawn)	2.07
COc1cccc2c(=O)c3ccoc3n(C)c12	5.59
CS(=O)CCCCC#N (stereo not drawn)	2.21
CC1(C)CC(O)C2(C)CCC3(C)C(=CCC4C5(C)CCC(OC6OC(C(=O)O)C(O)C(O)C6OC6OC(CO)C(O)C(O)C6OC6OC(CO)C(O)C(O)C6O)C(C)(CO)C5CCC43C)C2C1 (stereo not drawn)	6.97

SMILES	LC retention time [min]
NCCc1c[nH]c2ccccc12	1.79
COc1ccc2c(c1)OC(O)C(=O)N2O (stereo not drawn)	2.59
CC1=C(O)C(=O)CC(OC2CC(C)(C)CC3C4=CCC5C6(C)CCC(OC7OC(C(=O)O)C(O)C(O)C7OC7OC(CO)C(O)C(O)C7OC7OC(C)C(O)C(O)C7O)C(C)(CO)C6CCC5(C)C4(C)CCC23C)O1 (stereo not drawn)	7.68
CCCCCCCCCCCCCCCC(=O)OCC(O)COP(=O)(O)OCCNC1OC(CO)C(O)C(O)C1O (stereo not drawn)	9.72
CC1(C(=O)O)CCC2(C)CCC3(C)C(=CCC4C5(C)CCC(OC6OC(C(=O)O)C(O)C(O)C6OC6OC(C(=O)O)C(O)C(O)C6O)C(C)(CO)C5CCC43C)C2C1 (stereo not drawn)	6.15
COc1cc(C=CC(=O)NCCCCN=C(N)N)ccc1O	3.22
COc1cc(-c2oc3cc(O)cc(O)c3c(=O)c2OC2OC(CO)C(O)C(O)C2O)cc(OC)c1O (stereo not drawn)	4.36
O=C1CC2OCC=C3CN4CCC56c7ccccc7N1C5C2C3CC46 (stereo not drawn)	3.46
O=c1cc(-c2ccc(O)cc2)oc2c(C3OC(CO)C(O)C3O)c(O)c(C3OC(CO)C(O)C(O)C3O)c(O)c12 (stereo not drawn)	3.55
CC1(C(=O)O)CCC2(C)CCC3(C)C(=CC(=O)C4C5(C)CCC(OC6OC(C(=O)O)C(O)C(O)C6OC6OC(C(=O)O)C(O)C(O)C6O)C(C)(CO)C5CCC43C)C2C1 (stereo not drawn)	6.36
CC(=O)c1cccc2oc(=O)[nH]c12	3.93
Oc1ccc(C2Oc3cc(O)cc(O)c3CC2O)cc1 (stereo not drawn)	4.91
COc1cc(-c2[o+]c3cc(O)cc(O)c3cc2OC2OC(CO)C(O)C(O)C2O)ccc1O (stereo not drawn)	3.15
c1ccc2c(c1)[nH]c1cnccc12	3.48
O=c1cc(-c2ccc(O)cc2)oc2cc(O)c(C3OC(CO)C(O)C(O)C3O)c(O)c12 (stereo not drawn)	3.95
CC(C)=CCc1c(O)cc(O)c2c1OC(c1ccc(O)cc1)CC2=O (stereo not drawn)	8.76
COC1=CC2C3Cc4ccc(OC)c(O)c4C2(CCN3C)CC1=O (stereo not drawn)	3.03
COc1cc(CC2COC(c3ccc(O)c(OC)c3)C2CO)ccc1O (stereo not drawn)	4.96
O=C(O)CC(=O)OCC1OC(Oc2c(-c3ccc(O)c(O)c3)oc3cc(OC4OC(CO)C(O)C(O)C4O)cc(O)c3c2=O)C(O)C(O)C1O (stereo not drawn)	3.11
COc1ccc(-c2cc(=O)c3c(O)cc(OC4OC(COC5OC(C)C(O)C(O)C5O)C(O)C(O)C4O)cc3o2)cc1 (stereo not drawn)	5.19
